Data on 21 molecules can be found in patent US20230339970A1, “CASEIN KINASE 1 DELTA MODULATORS” (priority 2020, published 2023).

The target of assay [1] is T1, human recombinant GST cleaved CSNK1D (Homo sapiens, UniProt P48730).
T1 construct: GST (cleaved yes); purchased University of Dundee clone DU 19064
The assay can be described thus: Purified Enzyme Assay (ADP-Glo CSNK1D Kinase Assay). The format is biochemical. To be noted: 2 nM CSNK1D; peptide substrate 150 μM; ATP 20 μM; 45 minutes at room temperature. The method in brief: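 Percent activity derived from ADP-Glo quantification of ADP produced. Reactions: compound dose-response with human recombinant GST-cleaved CSNK1D, ATP and substrate peptide PLSRTL-pS-VASLPGL, incubated 45 min at room temperature.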

Another assay deals with T2, human CSNK1D (Homo sapiens, UniProt P48730).
T2 construct: expressed in transfected cells
T2 sequence (P48730 whole entry): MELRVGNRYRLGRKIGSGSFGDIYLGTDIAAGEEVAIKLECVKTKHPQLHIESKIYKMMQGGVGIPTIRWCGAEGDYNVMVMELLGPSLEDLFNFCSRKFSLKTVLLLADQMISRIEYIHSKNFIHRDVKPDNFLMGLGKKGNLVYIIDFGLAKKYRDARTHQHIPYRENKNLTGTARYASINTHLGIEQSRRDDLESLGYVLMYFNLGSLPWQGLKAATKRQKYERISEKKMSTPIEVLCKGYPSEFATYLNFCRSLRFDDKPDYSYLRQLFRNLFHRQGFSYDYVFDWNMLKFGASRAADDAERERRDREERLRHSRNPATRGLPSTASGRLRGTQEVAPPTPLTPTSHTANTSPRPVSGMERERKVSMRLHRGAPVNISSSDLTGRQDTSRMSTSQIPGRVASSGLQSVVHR
The assay can be described thus: Whole Cell nBRET CSNK1D Binding Assay. The following applies: living CHO cells stably expressing human CSNK1D tagged with nanoluciferase; NanoBret tracer 130 nM; 2 hours at 37 C.

Where only a bound is given, the exact number is not on record here.

T1 sequence (P48730 whole entry): as above

In the case of `COCC[C@@]1(C)CCc2c(-c3ccnc4[nH]ncc34)c(-c3ccc(F)cn3)nn2C1` (single isomer, unassigned) [Example 319, (*R)-4-[2-(5-Fluoro-2-pyridyl)-6-(2-methoxyethyl)-6-methyl-5,7-dihydro-4H-pyrazolo[1,5-a]pyridin-3-yl]-1H-pyrazolo[3,4-b]pyridine], the IC50 came out at 5 nM in assay [1] and 81 nM at human CSNK1D.
On to `CC1(CC2COC2)CCc2c(-c3ccnc4[nH]ncc34)c(-c3ccc(F)cn3)nn2C1` (single isomer, unassigned) [Example 320, (*R)-4-(2-(5-Fluoropyridin-2-yl)-6-methyl-6-(oxetan-3-ylmethyl)-4,5,6,7-tetrahydropyrazolo[1,5-a]pyridin-3-yl)-1H-pyrazolo[3,4-b]pyridine], for which the IC50 in assay [1] was found to be 14 nM; on human CSNK1D, 105 nM.
On the same counts, the results for `[2H]C([2H])([2H])[C@]1(C#N)CCc2c(-c3ccnc4[nH]ncc34)c(-c3ccc(F)cn3)nn2C1` (single isomer, unassigned) [Example 323, *S-2-(5-Fluoropyridin-2-yl)-6-(methyl-d3)-3-(1H-pyrazolo[3,4-b]pyridin-4-yl)-4,5,6,7-tetrahydropyrazolo[1,5-a]pyridine-6-carbonitrile] are 1 nM and 15 nM.
For `[2H]C([2H])([2H])[C@@]1(C#N)CCc2c(-c3ccnc4[nH]ncc34)c(-c3ccc(F)cn3)nn2C1` (single isomer, unassigned) [Example 324, (*R)-2-(S-Fluoropyridin-2-yl)-6-(methyl-d3)-3-(1H-pyrazolo[3,4-b]pyridin-4-yl)-4,5,6,7-tetrahydropyrazolo[1,5-a]pyridine-6-carbonitrile], the values for the IC50 (in assay [1]; at human CSNK1D) were 37 nM and 112 nM, respectively.
On the same counts, the results for `Fc1ccc(-c2nn3c(c2-c2ccnc4[nH]ncc24)CCC2(C3)CC2(F)F)cc1` (single isomer, unassigned) [Example 325, (*R)-2,2-Difluoro-2′-(4-fluorophenyl)-3′-(1H-pyrazolo[3,4-b]pyridin-4-yl)-4′,5′-dihydro-7′H-spiro[cyclopropane-1,6′-pyrazolo[1,5-a]pyridine]] are 1 nM and 1 nM.
On to `Fc1ccc(-c2nn3c(c2-c2ccnc4[nH]ncc24)CCC2(C3)CC2(F)F)cc1` (single isomer, unassigned) [Example 326, (*S)-2,2-Difluoro-2′-(4-fluorophenyl)-3′-1H-pyrazolo[3,4-b]pyridin-4-yl)-4′,5′-dihydro-7′H-spiro[cyclopropane-1,6′-pyrazolo[1,5-a]pyridine]], for which the IC50 in assay [1] was determined as 6 nM; on human CSNK1D it was 23 nM.
On the same counts, the results for `Fc1ccc(-c2nn3c(c2-c2ccnc4[nH]ncc24)CCC2(C3)CC2(F)F)nc1` (single isomer, unassigned) [Example 327, (*S)-2,2-Difluoro-2′-(5-fluoropyridin-2-yl)-3′-(1H-pyrazolo[3,4-b]pyridin-4-yl)-4′,5′-dihydro-7′H-spiro[cyclopropane-1,6′-pyrazolo[1,5-a]pyridine]] are 14 nM and 97 nM.
Regarding `Fc1ccc(-c2nn3c(c2-c2ccnc4[nH]ncc24)CCC2(C3)CC2(F)F)nc1` (single isomer, unassigned) [Example 328, (*R)-2,2-Difluoro-2′-(5-fluoropyridin-2-yl)-3′-(1H-pyrazolo[3,4-b]pyridin-4-yl)-4′,5′-dihydro-7′H-spiro[cyclopropane-1,6′-pyrazolo[1,5-a]pyridine]], the IC50 in assay [1] was found to be 1 nM; on human CSNK1D, 8 nM.
The corresponding values for `Fc1ccc(-c2nn3c(c2-c2c(F)cnc4[nH]ncc24)CC[C@@]2(C3)CC2(F)F)nc1` (single isomer, unassigned) [Example 329, (*S)-2,2-Difluoro-3′-(5-fluoro-1H-pyrazolo[3,4-b]pyridin-4-yl)-2′-(5-fluoropyridin-2-yl)-4′,5′-dihydro-7′H-spiro[cyclopropane-1,6′-pyrazolo[1,5-a]pyridine]] are 23 nM and 163 nM.
On the same counts, the results for `Fc1ccc(-c2nn3c(c2-c2c(F)cnc4[nH]ncc24)CCC2(C3)CC2(F)F)nc1` (single isomer, unassigned) [Example 330, (*R)-2,2-Difluoro-3′-(5-fluoro-1H-pyrazolo[3,4-b]pyridin-4-yl)-2′-(5-fluoropyridin-2-yl)-4′,5′-dihydro-7′H-spiro[cyclopropane-1,6′-pyrazolo[1,5-a]pyridine]] are 2 nM and 22 nM.
On the same counts, the results for `Cc1nc2[nH]ncc2c(-c2c(-c3ccc(F)cn3)nn3c2CC[C@@]2(C3)CC2(F)F)c1F` (single isomer, unassigned) [Example 331, (*S)-2,2-Difluoro-3′-(5-fluoro-6-methyl-1H-pyrazolo[3,4-b]pyridin-4-yl)-2′-(5-fluoropyridin-2-yl)-4′,5′-dihydro-7′H-spiro[cyclopropane-1,6′-pyrazolo[1,5-a]pyridine]] are 18 nM and 89 nM.
As for `Cc1nc2[nH]ncc2c(-c2c(-c3ccc(F)cn3)nn3c2CC[C@]2(C3)CC2(F)F)c1F` (single isomer, unassigned) [Example 332, (*R)-2,2-Difluoro-3′-(5-fluoro-6-methyl-1H-pyrazolo[3,4-b]pyridin-4-yl)-2′-(5-fluoropyridin-2-yl)-4′,5′-dihydro-7′H-spiro[cyclopropane-1,6′-pyrazolo[1,5-a]pyridine]], the IC50 in assay [1] came out at 1 nM; on human CSNK1D, 12 nM.
In the case of `Cc1nc2[nH]nc(C)c2c(-c2c(-c3ccc(F)cn3)nn3c2CC[C@@]2(C3)CC2(F)F)c1F` (single isomer, unassigned) [Example 333, (*S)-2,2-Difluoro-3′-(5-fluoro-3,6-dimethyl-1H-pyrazolo[3,4-b]pyridin-4-yl)-2′-(5-fluoropyridin-2-yl)-4′,5′-dihydro-7′H-spiro[cyclopropane-1,6′-pyrazolo[1,5-a]pyridine]], the IC50 was 4960 nM in assay [1] and above 10000 nM at human CSNK1D.
Consider `Cc1nc2[nH]nc(C)c2c(-c2c(-c3ccc(F)cn3)nn3c2CC[C@]2(C3)CC2(F)F)c1F` (single isomer, unassigned) [Example 334, (*R)-2,2-Difluoro-3′-(5-fluoro-3,6-dimethyl-1H-pyrazolo[3,4-b]pyridin-4-yl)-2′-(5-fluoropyridin-2-yl)-4′,5′-dihydro-7′H-spiro[cyclopropane-1,6′-pyrazolo[1,5-a]pyridine]], for which the IC50 was determined as 70 nM in assay [1] and 1550 nM at human CSNK1D.
On the same counts, the results for `Cc1nc(-c2c(-c3ccc(F)cc3)nn3c2CC[C@@]2(C3)CC2(F)F)c2cn[nH]c2n1` (single isomer, unassigned) [Example 335, (*S)-2,2-Difluoro-2′-(4-fluorophenyl)-3′-(6-methyl-1H-pyrazolo[3,4-d]pyrimidin-4-yl)-4′,5′-dihydro-7′H-spiro[cyclopropane-1,6′-pyrazolo[1,5-a]pyridine]] are 13 nM and 373 nM.
On to `Cc1nc(-c2c(-c3ccc(F)cc3)nn3c2CC[C@]2(C3)CC2(F)F)c2cn[nH]c2n1` (single isomer, unassigned) [Example 336, (*R)-2,2-Difluoro-2′-(4-fluorophenyl)-3′-(6-methyl-1H-pyrazolo[3,4-d]pyrimidin-4-yl)-4′,5′-dihydro-7′H-spiro[cyclopropane-1,6′-pyrazolo[1,5-a]pyridine]], for which the IC50 in assay [1] was 1 nM; on human CSNK1D it was 9 nM.
On the same counts, the results for `Fc1ccc(-c2nn3c(c2-c2ccnc4[nH]ncc24)[C@@H](Cl)C[C@]2(C3)CC2(F)F)nc1` (single isomer, unassigned) [Example 337, (1*S,4′*S)-4′-Chloro-2,2-difluoro-2′-(5-fluoropyridin-2-yl)-3′-(1H-pyrazolo[3,4-b]pyridin-4-yl)-4′,5′-dihydro-7′H-spiro[cyclopropane-1,6′-pyrazolo[1,5-a]pyridine]] are 3 nM and 80 nM.
On the same counts, the results for `Fc1ccc(-c2nn3c(c2-c2ccnc4[nH]ncc24)[C@H](Cl)C[C@]2(C3)CC2(F)F)nc1` (single isomer, unassigned) [Example 338, (1*S,4′*R)-4′-Chloro-2,2-difluoro-2′-(5-fluoropyridin-2-yl)-3′-(1H-pyrazolo[3,4-b]pyridin-4-yl)-4′,5′-dihydro-7′H-spiro[cyclopropane-1,6′-pyrazolo[1,5-a]pyridine]] are 5 nM and 72 nM.
On the same counts, the results for `Fc1ccc(-c2nn3c(c2-c2c(F)cnc4[nH]ncc24)CC[C@@H]2C[C@@H]23)nc1` (single isomer, unassigned) [Example 343, (5a*R,6a*S)-3-(5-Fluoro-1H-pyrazolo[3,4-b]pyridin-4-yl)-2-(5-fluoropyridin-2-yl)-5,5a,6,6a-tetrahydro-4H-cyclopropa[e]pyrazolo[1,5-a]pyridine] are 5 nM and 96 nM.
With `Cc1nc2[nH]ncc2c(-c2c(-c3ccc(F)cn3)nn3c2CC[C@@H]2C[C@@H]23)c1F` (single isomer, unassigned) [Example 344, (5a*R,6a*S)-3-(5-Fluoro-6-methyl-1H-pyrazolo[3,4-b]pyridin-4-yl)-2-(5-fluoropyridin-2-yl)-5,5a,6,6a-tetrahydro-4H-cyclopropa[e]pyrazolo[1,5-a]pyridine], the results for the IC50 (in assay [1]; on human CSNK1D) were 4 nM and 44 nM, respectively.
On the same counts, the results for `Cc1n[nH]c2ncc(F)c(-c3c(-c4ccc(F)cn4)nn4c3CC[C@@H]3C[C@@H]34)c12` (single isomer, unassigned) [Example 345, (5a*R,6a*S)-3-(5-Fluoro-3-methyl-1H-pyrazolo[3,4-b]pyridin-4-yl)-2-(5-fluoropyridin-2-yl)-5,5a,6,6a-tetrahydro-4H-cyclopropa[e]pyrazolo[1,5-a]pyridine] are 34 nM and 368 nM.
